Measurements reported in the supplement of paper PMC13380429.

Experiments:
Conditions in all cases: 72 h
[1] = test system: Caco-2; experiment: cell viability relative to DMSO; higher = less toxic
[2] = test system: Calu-3; experiment: as above
[3] = test system: HepG2; experiment: as above
[4] = test system: U2OS; experiment: as above
[5] = test system: Vero E6; experiment: as above
[6] = test system: Calu-3; experiment: relative viability EC50 (midpoint between 100% and the lowest measured viability); higher = less toxic
[7] = test system: HepG2; experiment: as above
[8] = test system: U2OS; experiment: as above
[9] = test system: Vero E6; experiment: as above
[10] = test system: Caco-2; experiment: drug sensitivity score (DSS) for viability; higher = more toxic; extreme values may be limits of the assay
[11] = test system: Calu-3; experiment: as above
[12] = test system: HepG2; experiment: as above
[13] = test system: U2OS; experiment: as above
[14] = test system: Vero E6; experiment: as above
[15] = test system: Caco-2; experiment: relative viability EC50 (midpoint between 100% and the lowest measured viability); higher = less toxic

Row | SMILES | cell viability ([1]; 1 nM) [%] | cell viability ([1]; 10 nM) [%] | cell viability ([1]; 100 nM) [%] | cell viability ([1]; 1000 nM) [%] | cell viability ([1]; 10000 nM) [%] | cell viability ([2]; 1 nM) [%] | cell viability ([2]; 10 nM) [%] | cell viability ([2]; 100 nM) [%] | cell viability ([2]; 1000 nM) [%] | cell viability ([2]; 10000 nM) [%] | cell viability ([3]; 1 nM) [%] | cell viability ([3]; 10 nM) [%] | cell viability ([3]; 100 nM) [%] | cell viability ([3]; 1000 nM) [%] | cell viability ([3]; 10000 nM) [%] | cell viability ([4]; 1 nM) [%] | cell viability ([4]; 10 nM) [%] | cell viability ([4]; 100 nM) [%] | cell viability ([4]; 1000 nM) [%] | cell viability ([4]; 10000 nM) [%] | cell viability ([5]; 1 nM) [%] | cell viability ([5]; 10 nM) [%] | cell viability ([5]; 100 nM) [%] | cell viability ([5]; 1000 nM) [%] | cell viability ([5]; 10000 nM) [%] | relative viability EC50 [6] [µM] | relative viability EC50 [7] [µM] | relative viability EC50 [8] [µM] | relative viability EC50 [9] [µM] | drug sensitivity score [10] | drug sensitivity score [11] | drug sensitivity score [12] | drug sensitivity score [13] | drug sensitivity score [14] | relative viability EC50 [15] [µM]
1 | COc1cc([C@@H]2c3cc4c(cc3[C@@H](O[C@@H]3O[C@@H]5CO[C@@H](C)O[C@H]5[C@H](O)[C@H]3O)[C@H]3COC(=O)[C@H]23)OCO4)cc(OC)c1O [etoposide] | 93.5 | 97.1 | 92.2 | 97.7 | 54.2 | 83.1 | 92.5 | 90.4 | 81.1 | 40.7 | 111 | 85.2 | 96.3 | 65.6 | 43.1 | 100 | 104 | 99.9 | 94.5 | 46.1 | 104 | 105 | 103 | 98.7 | 80.2 | 1.52 | 0.701 | 2.32 | > 10 | 2.7 | 5.3 | 7.2 | 3.8 | 0.7 | –
2 | CN1CCN(CC/C=C2/c3ccccc3Sc3ccc(S(=O)(=O)N(C)C)cc32)CC1 [thiothixene] | 107 | 104 | 103 | 97.5 | 71.4 | 96.4 | 102 | 119 | 104 | 77.6 | 94.2 | 102 | 104 | 87.6 | 73.3 | 95.7 | 97 | 95.6 | 99.4 | 84.5 | 99.5 | 108 | 97.2 | 91.8 | 88.1 | > 10 | – | > 10 | > 10 | 1.6 | 0.6 | 2.6 | 0.3 | 0.2 | –
3 | CCCCCCOc1ccccc1C(N)=O [exalamide] | – | – | – | – | – | 106 | 115 | 107 | 98.3 | 113 | 110 | 96.1 | 95.9 | 109 | 90 | 95.6 | 92.7 | 101 | 93.1 | 94.3 | 110 | 105 | 102 | 105 | 86.9 | > 10 | > 10 | > 10 | > 10 | – | 0 | 0 | 0 | 0 | –
4 | O=C(C=Cc1ccccc1)NC(NC(=S)Nc1ccc(Cl)cc1)C(Cl)(Cl)Cl (stereo not given) [sal003] | 97.6 | 96 | 101 | 91.1 | 74.1 | 106 | 99.8 | 95.1 | 108 | 95.6 | 104 | 102 | 96.2 | 99 | 19.1 | 98.8 | 94.6 | 98.2 | 93.7 | 91.5 | 94.9 | 102 | 100 | 100 | 81.2 | > 10 | 3.08 | > 10 | > 10 | 2.2 | 0 | 4.6 | 0 | 0.5 | –
5 | O=C(c1c(F)ccc(NS(=O)(=O)N2CC[C@@H](F)C2)c1F)c1c[nH]c2ncc(-c3cnc(C4CC4)nc3)cc12 [PLX8394] | 102 | 99.2 | 94.4 | 91.7 | 71.8 | 105 | 105 | 83.6 | 104 | 114 | 91 | 90.5 | 106 | 101 | 79.1 | 96 | 105 | 104 | 107 | 93.3 | 102 | 96.6 | 104 | 98.8 | 113 | > 10 | > 10 | > 10 | > 10 | 1.9 | 0 | 0.6 | 0 | 0 | –
6 | CC(C)=CCC[C@](C)(O)[C@H]1CC[C@]2(C)[C@@H]1[C@H](O)C[C@@H]1[C@@]3(C)CC[C@H](O)C(C)(C)[C@@H]3CC[C@]12C [S-111] | 106 | 98.3 | 103 | 104 | 99.8 | 95.5 | 95.4 | 89.1 | 97.2 | 93 | – | – | – | – | – | – | – | – | – | – | 104 | 102 | 98.3 | 105 | 100 | > 10 | – | – | > 10 | 0 | 0 | – | – | 0 | > 10
7 | O=C1NC(O)CCN1[C@@H]1O[C@H](CO)[C@@H](O)[C@H]1O (stereo not given in full) [tetrahydrouridine] | 101 | 100 | 95.2 | 102 | 99.2 | 108 | 102 | 103 | 101 | 96.2 | 112 | 101 | 98.1 | 99.1 | 110 | – | – | – | – | – | – | – | – | – | – | > 10 | > 10 | – | – | 0 | 0 | 0 | – | – | > 10
8 | C[C@H](NC(=O)/C(C#N)=C/c1ccc(O)c(O)c1)c1ccccc1 [tyrphostin-AG-835] | 92.2 | 97.2 | 90.5 | 93.7 | 74.6 | 89.4 | 96.8 | 109 | 97.2 | 98.2 | 109 | 90.9 | 106 | 97.3 | 78.9 | 97.2 | 98.5 | 98.3 | 98.3 | 91 | 98 | 90.4 | 98.5 | 89.6 | 89.6 | > 10 | > 10 | > 10 | > 10 | 1.5 | 0 | 1 | 0 | 0 | –
9 | Cc1c(C)c2c(c(C)c1O)CCC(C)(C)O2 [APC-100] | 90.4 | 118 | 100 | 131 | 71.8 | 96.6 | 95.1 | 100 | 104 | 100 | 120 | 88.6 | 120 | 95.7 | 99.2 | 91.4 | 100 | 94.3 | 100 | 102 | 93.5 | 85.4 | 99.1 | 88.1 | 102 | > 10 | > 10 | > 10 | > 10 | 0.6 | 0 | 0 | 0 | 0 | –
10 | Cc1c(C2CCN(CCc3ccccc3)CC2)noc1-c1ccc(Cl)cc1 | 103 | 106 | 99.9 | 98.8 | 68.6 | 99.9 | 104 | 101 | 108 | 80.9 | 102 | 107 | 96.5 | 95.8 | 71.9 | 102 | 98.7 | 101 | 97.3 | 96.6 | 105 | 99.4 | 103 | 98.3 | 90.3 | > 10 | – | > 10 | > 10 | 1.5 | 0.3 | 1.9 | 0 | 0 | –
11 | C[C@@H]1COC(Nc2ccc3ncnc(Nc4ccc(OCc5nccs5)c(Cl)c4)c3c2)=N1 | 95.7 | 104 | 97.2 | 81.6 | 67.7 | 103 | 107 | 81.8 | 41.3 | 36.1 | 100 | 100 | 94.8 | 92.3 | 98.8 | 97.8 | 96.7 | 98.9 | 93.3 | 90 | 107 | 99.5 | 94 | 70.7 | 67 | 0.184 | > 10 | > 10 | – | 3.4 | 13.2 | 0 | 0 | 5.6 | –
12 | CC(=O)c1c(C)c2cnc(Nc3ccc(N4CCNCC4)cn3)nc2n(C2CCCC2)c1=O [palbociclib] | 97.1 | 90.6 | 95.6 | 86.2 | 50.4 | 101 | 90.6 | 98.4 | 85.8 | 92.8 | 92.5 | 88.5 | 80.7 | 65.9 | 29.4 | 104 | 94.8 | 98.8 | 92.3 | 57.3 | 97.9 | 101 | 96.4 | 77.3 | 26.9 | > 10 | 0.525 | – | 1.4 | 4.5 | 0 | 9.7 | 3.4 | 7.2 | –
13 | C=C(C)[C@@H]1CC[C@]2(CO)CC[C@]3(C)[C@H](CC[C@@H]4[C@@]5(C)CC[C@H](O)C(C)(C)[C@@H]5CC[C@]43C)[C@@H]12 [NSC-4644] | 101 | 73.1 | 75.8 | 74.1 | 91.1 | 103 | 103 | 102 | 106 | 90.3 | 112 | 99.1 | 96.1 | 81.2 | 89.8 | 96.6 | 95.6 | 103 | 92 | 98.4 | 84.1 | 95.4 | 96.3 | 92 | 106 | > 10 | > 10 | > 10 | > 10 | 10.8 | 0 | 2.9 | 0 | 0 | –
14 | Cc1cc(CCC[C@H](CC(=O)NO)C(=O)N[C@H](C(=O)N[C@H](C)c2ccccc2)C(C)(C)C)ccc1-c1ccccc1 | 105 | 95.2 | 110 | 99.4 | 51.4 | 101 | 90.9 | 91.8 | 94.8 | 77.5 | 110 | 116 | 99.6 | 106 | 35.1 | 99.1 | 102 | 97.3 | 99.6 | 46.7 | 103 | 104 | 99.9 | 97 | 67.5 | > 10 | 3.6 | 3.12 | – | 2.6 | 1.1 | 3.1 | 2.9 | 1.9 | –
15 | O=[N+]([O-])c1cncn1CCN1CCOCC1 [nimorazole] | 102 | 107 | 94.8 | 106 | 96.3 | 102 | 105 | 94.6 | 108 | 93.9 | 118 | 112 | 97.2 | 98.7 | 117 | – | – | – | – | – | – | – | – | – | – | > 10 | > 10 | – | – | 0 | 0 | 0 | – | – | > 10
